The values below are quoted from earlier work in patent US5317003A, “Herbicidal compositions comprising glyphosate salts and alkoxylated quaternary amine surfactants” (Monsanto Company, priority 1992, dated 1994).

The structures appear in SMILES notation.

Regarding `O=C(O)CNCP(=O)(O)O` [N-phosphonomethylglycine], the solubility in water entry is “relatively insoluble”.
